The conditions of series [1]: cited from earlier work.
For series [2] the following is noted: cited from earlier work. The source holds these as a separate data set.
For series [3] the following is noted: in vivo; cited from earlier work.
A short description of series [4]: Serum clinical chemistry of dosed rats (studies by the present inventors). Conditions: AY-25329; as early as 6 hours after the first dose; 14 day study.
Series [5] can be described thus: Light microscopic analysis of liver and kidney of dosed rats (present inventors).
The conditions of series [6]: dogs, after treatment; cited from earlier work.
The conditions of series [7]: rat liver mitochondria; cited from earlier work.
For series [8] the following is noted: cited from earlier work. The source holds these as a separate data set.
For series [9] the following is noted: rats and mice; cited from earlier work.
The conditions of series [10]: mice; cited from earlier work.
For another series, the system named is rat hepatocytes. Conditions: cited from earlier work.
The conditions of series [11]: rats and hamsters; cited from earlier work.
For series [12] the following is noted: hamster livers; cited from earlier work.
The subject of series [13] is human hepatoma cell lines. Conditions: cited from earlier work.
The conditions of series [14]: in vivo; cited from earlier work. The source holds these as a separate data set.
The mark [15] stands for this setting: 14 days of repeated dosing, 250 mg/kg/day.
The mark [16] stands for this setting: male Sprague Dawley rats, 0.1, 1, 2, 3, 4 mL/kg ip, […] po.
[17] abbreviates: male Sprague Dawley rats, peak within 48 hours post dose.
The mark [18] stands for this setting: acute administration, male rats.

Consider `CC(=O)Nc1ccc2c(c1)Cc1ccccc1-2` [2-AAF, 2-acetylaminofluorene], for which, in series [1] (rats), the “ALT (alanine aminotransferase) level in serum or plasma” value (from here on “ALT (alanine aminotransferase) level”) was “elevated” and the “AST (aspartate aminotransferase) level in serum or plasma” value (shortened to “AST (aspartate aminotransferase) level”) was “elevated”. Moreover, the “liver finding (pathology)” value in series [2] (rats) is recorded as “cirrhosis-like changes in the liver”.

`C#C[C@]1(O)CC[C@H]2[C@@H]3CCc4cc(O)ccc4[C@H]3CC[C@@]21C` [17α-ethinylestradiol]: in [1] (male rats), the plasma cholesterol level entry is “decrease”, the “plasma level of bile salts” value is recorded as “not changed”, the “plasma level of bilirubin” value was “not changed” and the plasma triglyceride level result is “decrease”. For the same molecule, in [1] (rats), the “ALT (alanine aminotransferase) level” value is “not changed” and the “AST (aspartate aminotransferase) level” value is “not changed”. In [2] (male rats), the “activity of liver enzyme alkaline phosphatase” value is recorded as “initially showed significant increases, but enzyme levels decreased after 3 days”; the “activity of liver enzyme leucine aminopeptidase” value is “initially showed significant increases, but enzyme levels decreased after 3 days”; the bile flow entry is reported as “decrease”; the bilirubin output entry is “increased”. Further, in series [2] (male rats), the “glutathione (GSH) output” value was “decreased”. For the same molecule, in series [2] (rats), the “liver finding (pathology)” value is listed as “reversible intrahepatic cholestasis” and the liver weight result was “increase”.

Regarding `S=C=Nc1cccc2ccccc12` [ANIT, α-naphthylisothiocyanate], in series [3], the activity of catalase result is “decreased”, the “activity of superoxide dismutase” value is on record as “decreased”, the “serum glutamic oxaloacetic transaminase” value was “increase” and the “serum glutamic pyruvic transaminase” value is reported as “increase”. For the same molecule, in series [3], the “serum level of alkaline phosphatase” value is “increase”, the “serum level of total bilirubin” value is recorded as “increase” and the total bile flow entry is recorded as “reduced”.

With `O=C(CCN1CCN2CCCC2C1)N1c2ccccc2Sc2ccc(Cl)cc21` (stereo not drawn) [AY-25329], in series [4], the “serum level of ALT” value is recorded as “statistically significant increases”, the “serum level of BUN” value is recorded as “statistically significant increases”, the “serum level of cholesterol” value is reported as “statistically significant increases” and the “serum level of creatinine” value was “statistically significant increases”. Besides, the “serum level of triglycerides” value in [4] is “statistically significant increases”. Besides, in [5] (setting [15]), the kidney finding result is listed as “nephrosis”; the liver finding entry is “alterations in the peripheral lobes of the liver and in the cytoplasm of hepatocytes”. Also, in [5] (liver, 6 and 24 hours), the “hepatocytic mitotic figures (light microscopy)” value was “increased number” and the “liver glycogen content (light microscopy)” value was “decreased”.

As to `ClC(Cl)(Cl)Cl` [CCl4, carbon tetrachloride], the “serum α-glutathione s-transferase (α-GST) level” value in series [1] (male SD rats, 25 μL/kg po, as early as 2 hours after administration) was “Significant increases”. Besides, in series [1] (setting [16]), the “time after administration within which ALT level increases” value is no more than 3 h and the “time after administration within which AST level increases” value was no more than 3 h. Moreover, in [1] (setting [17]), the “peak increase of ALT level” value is 5-10 fold and the “peak increase of AST level” value was 5-10 fold. Further, the “time of peak centrilobular necrosis and inflammatory infiltration” value in series [2] (acute administration, male rats, post dose) was 24 to 48 h. In addition, in series [2] (setting [18]), the “time to cytoplasmic accumulation of lipids in hepatocytes” value is 1 to 3 h; the “time to focal necrosis and hydropic swelling of hepatocytes” value was 5 to 6 h; the “time to full restoration of the liver” value is no more than 14 days.

`Cl.Nc1nc2c(Cc3ccsc3)c[nH]c2c(=O)[nH]1.O` [CI-1000, 4H-pyrrolo:3,2-d:pyrimidin-4-one, 2-amino-3,5-dihydro-7-(3-thienylmethyl)-monohydrochloride monohydrate]: the “serum ALT level” value in series [6] is “increased”.

For the molecule `CC(=O)O[C@]1(C(C)=O)CC[C@H]2[C@@H]3C=C(Cl)C4=CC(=O)[C@@H]5C[C@@H]5[C@]4(C)[C@H]3CC[C@@]21C` [CPA, Cyproterone acetate], in [2] (rats, single oral dose), the “time after which continuous DNA repair activity was observed” value was 16 h. Besides, the “occurrence of S phase cells in rat liver” value in series [2] (rats) was “increased”.

With `CN(C)N=O` [DMN, dimethylnitrosamine], in series [1] (rats), the “ALT (alanine aminotransferase) level” value is on record as “increased”, the “serum SOD” value is on record as “decreased” and the “serum malondialdehyde (MDA)” value is listed as “increased”. Also, in [2] (rats), the “hydroxyproline levels (indicator of fibrosis)” value is listed as “elevated”; the “liver finding (pathology)” value is “severe centrilobular congestion and haemorrhagic necrosis”.

For `Cc1cccc(Nc2cc(Cl)nc(SCC(=O)O)n2)c1C` [Wy-14643], the oxidative phosphorylation result in series [7] is on record as “capable of uncoupling oxidative phosphorylation”.

`CC(=O)Nc1ccc(O)cc1` [acetaminophen]: in series [1] (rats), the “ALT (alanine aminotransferase) level” value is on record as “statistically significant elevations” and the “AST (aspartate aminotransferase) level” value is recorded as “statistically significant elevations”. Besides, in [2] (rats), the “liver finding (pathology)” value is on record as “hepatocellular necrosis” and the “time after dosing at which hepatotoxicity can be observed” value was 24 h.

For `CC(O)(CS(=O)(=O)c1ccc(F)cc1)C(=O)Nc1ccc(C#N)c(C(F)(F)F)c1` (stereo not drawn) [bicalutamide], in series [2] (rats), the “levels of CYP3A1” value is given as “elevated levels”. Further, in [8] (humans), the “ALT / glutamic-pyruvic transaminase (GPT) level” value is given as “elevated levels”, the “AST / glutamic-oxalacetic transaminase (GOT) level” value is on record as “elevated levels” and the “alkaline phosphatase (AL-P) level” value is “elevated levels”. Moreover, the “gamma guanosine 5′-triphosphate (gamma-GTP) level” value in series [8] (prostate cancer patients) is “elevated levels”.

Turning to `ClC(Cl)Cl` [chloroform, Chloroform], in series [2] (setting [18]), the “time to cytoplasmic accumulation of lipids in hepatocytes” value is 1 to 3 h; the “time to focal necrosis and hydropic swelling of hepatocytes” value was 5 to 6 h. In addition, in series [9], the “level of BUN” value is recorded as “increased levels”, the level of phosphatidyl-ethanolamine entry is “decreased levels”, the “level of serum creatinine” value is reported as “increased levels” and the “level of tissue glutathione (GSH)” value is given as “decreased levels”. In addition, in [10], the “levels of 5-methylcytosine and of the methylated c-myc gene” value was “Decreased levels”. Moreover, the “markers of hepatocellular regeneration (alpha-fetoprotein, retinol-binding protein, gamma-glutamyl transferase and des-gamma-carboxyprothrombin)” value in series [8] (humans, poisoning) is recorded as “increased levels”. In addition, in series [8] (humans), the “alkaline phosphatase (AL-P) level” value is listed as “decreased levels”.

On to `CCOC(=O)C(C)(C)Oc1ccc(Cl)cc1` [clofibrate], for which the “levels of copper in neoplastic liver tissues” value in series [2] (rat study of liver hyperplasia and liver tumors) was “increased levels”. Further, the “liver finding (pathology)” value in series [2] (rats) was “hepatocellular hypertrophy, cellular proliferation, hepatomegaly, induction of CYP450 isozymes, and induction of palmitoyl CoA oxidation”.

As to `O=C(O)c1cc(-c2ccc(F)cc2F)ccc1O` [diflunisal], in the series with rat hepatocytes (rat hepatocytes), the “LDH (lactic acid dehydrogenase) leakage” value is “increase” and the “intracellular ATP” value was “decreased”.

For the molecule `Cc1ccc(C)c(OCCCC(C)(C)C(=O)O)c1` [gemfibrozil], in series [11], the DT-diaphorase activity result was “increase” and the alpha-tocopherol entry is given as “decrease”.

Turning to `NN` [hydrazine, Hydrazine], in series [2] (rats), the “liver finding (pathology)” value was “induction of fatty liver” and the liver weight result is recorded as “increases”. Also, in the series on rat hepatocytes (rat hepatocytes), the GSH result is reported as “depletion”, the “LDH (lactic acid dehydrogenase) leakage” value is given as “leakage”, the “intracellular ATP” value is listed as “depletion” and the “rate of protein synthesis” value was “decreased”. Further, the viability entry with rat hepatocytes (rat hepatocytes) is listed as “dose-dependent loss”. Further, the “hepatic adenomas and carcinomas” value in series [12] is reported as “developed in a dose-dependent manner”.

As for `COc1ccc2c(c1)c(CC(=O)O)c(C)n2C(=O)c1ccc(Cl)cc1` [indomethacin], the “liver and renal microsomal enzymes, including CYP450” value in series [2] (rats, single dose) was “reduce”.

Turning to `Cl.Nc1c2c(nc3ccccc13)CCCC2` [tacrine, 1,2,3,4-tetrahydro-9-aminoacridine-hydrochloride], the “liver finding (pathology)” value in series [2] (rats) was “have not shown a correlation between tacrine exposure and hepatotoxicity”. Further, the cytotoxicity result (in the series with rat hepatocytes (primary rat hepatocytes); in [13]) was “displayed cytotoxicity” each time.

As for `CC(=N)S` [thioacetamide, Thioacetamide], in [1] (rats), the “ALT (alanine aminotransferase) level” value is on record as “elevated levels”, the “AST (aspartate aminotransferase) level” value is listed as “elevated levels”, the “serum BUN” value was “elevated levels” and the “serum TNFα” value is given as “elevated levels”. Moreover, in series [1] (rats), the serum creatinine result is “elevated levels” and the serum total bilirubin entry was “elevated levels”.

For the molecule `CCCC(CCC)C(=O)O` [valproate, n-dipropylacetic acid], in series [2] (rats), the “liver finding (pathology)” value is on record as “microvesicular steatosis”. The “amounts of acyl-CoA esters” value with rat hepatocytes (cultured rat hepatocytes) is “increased amounts”. Also, the “LDH (lactic acid dehydrogenase) leakage” value in the series on rat hepatocytes (rat hepatocytes) was “dose-dependent leakage”. Also, in series [8] (patients), the “share of patients with elevated levels of hepatic enzymes” value is recorded as “about 40%”.

For the molecule `CC(c1cc2ccccc2s1)N(O)C(N)=O` (stereo not drawn) [zileuton], in series [14], the “levels of liver peroxisomal palmitoyl CoA oxidase” value is “elevated levels”; the “levels of microsomal cytochromes P450 2B and P450 4A” value was “elevated levels”; the liver size result was “hepatomegaly”.

The values are drawn from patent publication US20070027634A1, “Molecular hepatotoxicology modeling” (priority 2002, published 2007).
